Reference: PubChem BioAssay AID1963977 (Molecular Pharmacology Branch, DTP, NCI, 2024)
Values joined by “and” are separate entries in the source; they are usually repeats but may differ in a detail not shown here. Identical values can stand only once. One block for each compound: values may come before it.

Tested on: 624824-186-R-J3-PDC multicell spheroids, viability
Test: Anticancer human tumor 624824-186-R-J3-PDC patient-derived colon adenocarcinoma cell line growth inhibition [PI3K]
Conditions: for IC50: curve of first compound; for viability, T/C: stronger effect = lower value
Method in brief: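 Stroma-containing spheroids: tumor line, pooled-donor HUVEC, hMSC. Treatments: targeted agents with PI3K inhibitors. Dosing: clinically relevant, half-log spacing, 10 microM ceiling without known Cmax. Read-out: cell viability.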

[1] = second compound 0.0316 µM, first compound 0.0316 µM
[2] = second compound 0.0316 µM, first compound 0.1 µM
[3] = second compound 0.0316 µM, first compound 0.316 µM
[4] = second compound 0.0316 µM, first compound 1 µM
[5] = second compound 0.0316 µM, first compound 3.16 µM
[6] = second compound 0.0316 µM, first compound 10 µM
[7] = second compound 0.1 µM, first compound 0.0316 µM
[8] = second compound 0.1 µM, first compound 0.1 µM
[9] = second compound 0.1 µM, first compound 0.316 µM
[10] = second compound 0.1 µM, first compound 1 µM
[11] = second compound 0.1 µM, first compound 3.16 µM
[12] = second compound 0.1 µM, first compound 10 µM
[13] = second compound 0.316 µM, first compound 0.0316 µM
[14] = second compound 0.316 µM, first compound 0.1 µM
[15] = second compound 0.316 µM, first compound 0.316 µM
[16] = second compound 0.316 µM, first compound 1 µM
[17] = second compound 0.316 µM, first compound 3.16 µM
[18] = second compound 0.316 µM, first compound 10 µM
[19] = second compound 1 µM, first compound 0.0316 µM
[20] = second compound 1 µM, first compound 0.1 µM
[21] = second compound 1 µM, first compound 0.316 µM
[22] = second compound 1 µM, first compound 1 µM
[23] = second compound 1 µM, first compound 3.16 µM
[24] = second compound 1 µM, first compound 10 µM
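Further: spheroids exposed to agents for seven days before luminescence read.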
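Wherever viability, T/C is given: luminescent signal used as a stand-in for spheroid viability; percent viability relative to DMSO vehicle control wells taken as 100%.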

IC50 (second compound 0.0316 µM): 7.77 µM | IC50 (second compound 0.1 µM): 7.33 µM | IC50 (second compound 0.316 µM): 8.72 µM | IC50 (second compound 1 µM): 7.87 µM | IC50 (second compound 3.16 µM): 8.48 µM | IC50 (second compound 10 µM): 9 µM
SMILES: CC1(C)CCC(CN2CCN(c3ccc(C(=O)NS(=O)(=O)c4ccc(NCC5CCOCC5)c([N+](=O)[O-])c4)c(Oc4cnc5[nH]ccc5c4)c3)CC2)=C(c2ccc(Cl)cc2)C1 + CC(Nc1ncnc2nc[nH]c12)c1cc2cccc(Cl)c2c(=O)n1-c1ccccc1
viability, T/C [1]: 112% | viability, T/C [2]: 94.8% | viability, T/C [3]: 116% | viability, T/C [4]: 96.7% | viability, T/C [5]: 106% | viability, T/C [6]: 34.5% | viability, T/C [7]: 103% | viability, T/C [8]: 92.4% | viability, T/C [9]: 91.4% | viability, T/C [10]: 90.1% | viability, T/C [11]: 111% | viability, T/C [12]: 32.5% | viability, T/C [13]: 110% | viability, T/C [14]: 114% | viability, T/C [15]: 108% | viability, T/C [16]: 106% | viability, T/C [17]: 117% | viability, T/C [18]: 41.6% | viability, T/C [19]: 97.9% | viability, T/C [20]: 111% | viability, T/C [21]: 112% | viability, T/C [22]: 99.2% | viability, T/C [23]: 117% | viability, T/C [24]: 35% | viability, T/C (second compound 3.16 µM, first compound 0.0316 µM): 109% | viability, T/C (second compound 3.16 µM, first compound 0.1 µM): 97.2% | viability, T/C (second compound 3.16 µM, first compound 0.316 µM): 102% | viability, T/C (second compound 3.16 µM, first compound 1 µM): 111% | viability, T/C (second compound 3.16 µM, first compound 3.16 µM): 125% | viability, T/C (second compound 3.16 µM, first compound 10 µM): 40.1% | viability, T/C (second compound 10 µM, first compound 0.0316 µM): 88.6% | viability, T/C (second compound 10 µM, first compound 0.1 µM): 95.3% | viability, T/C (second compound 10 µM, first compound 0.316 µM): 94.6% | viability, T/C (second compound 10 µM, first compound 1 µM): 93.8% | viability, T/C (second compound 10 µM, first compound 3.16 µM): 108% | viability, T/C (second compound 10 µM, first compound 10 µM): 45.3%

SMILES: CC1(C)CCC(CN2CCN(c3ccc(C(=O)NS(=O)(=O)c4ccc(NCC5CCOCC5)c([N+](=O)[O-])c4)c(Oc4cnc5[nH]ccc5c4)c3)CC2)=C(c2ccc(Cl)cc2)C1
viability, T/C (compound 0.0316 µM): 101% [middle of 4 runs] | viability, T/C (compound 0.1 µM): 99.1% [middle of 4 runs] | viability, T/C (compound 0.316 µM): 103% (2×) and 102% and 107% | viability, T/C (compound 1 µM): 105% [middle of 4 runs] | viability, T/C (compound 3.16 µM): 110% [middle of 4 runs]

IC50 (second compound 0.00316 µM): > 10 µM | IC50 (second compound 0.01 µM): > 10 µM | IC50 (second compound 0.0316 µM): > 10 µM | IC50 (second compound 0.1 µM): > 10 µM | IC50 (second compound 0.316 µM): > 10 µM | IC50 (second compound 1 µM): 3.12 µM
SMILES: Cn1ncc(Cl)c1-c1cc(C(=O)NC(CN)Cc2cccc(F)c2)sc1Cl (centres undefined) + CC(Nc1ccc2c(c1)OCCn1cc(N3C(=O)OCC3C(F)F)nc1-2)C(N)=O
viability, T/C (second compound 0.00316 µM, first compound 0.0316 µM): 111% | viability, T/C (second compound 0.00316 µM, first compound 0.1 µM): 105% | viability, T/C (second compound 0.00316 µM, first compound 0.316 µM): 103% | viability, T/C (second compound 0.00316 µM, first compound 1 µM): 74.1% | viability, T/C (second compound 0.00316 µM, first compound 3.16 µM): 55.4% | viability, T/C (second compound 0.00316 µM, first compound 10 µM): 80% | viability, T/C (second compound 0.01 µM, first compound 0.0316 µM): 103% | viability, T/C (second compound 0.01 µM, first compound 0.1 µM): 99.3% | viability, T/C (second compound 0.01 µM, first compound 0.316 µM): 92.9% | viability, T/C (second compound 0.01 µM, first compound 1 µM): 70% | viability, T/C (second compound 0.01 µM, first compound 3.16 µM): 52.4% | viability, T/C (second compound 0.01 µM, first compound 10 µM): 84% | viability, T/C [1]: 104% | viability, T/C [2]: 99.4% | viability, T/C [3]: 90.2% | viability, T/C [4]: 66.7% | viability, T/C [5]: 49.5% | viability, T/C [6]: 83.1% | viability, T/C [7]: 103% | viability, T/C [8]: 97.3% | viability, T/C [9]: 91.4% | viability, T/C [10]: 69.2% | viability, T/C [11]: 51.4% | viability, T/C [12]: 79.2% | viability, T/C [13]: 100% | viability, T/C [14]: 93% | viability, T/C [15]: 88.5% | viability, T/C [16]: 64.1% | viability, T/C [17]: 42% | viability, T/C [18]: 62.4% | viability, T/C [19]: 90.1% | viability, T/C [20]: 90.6% | viability, T/C [21]: 76.7% | viability, T/C [22]: 63.7% | viability, T/C [23]: 44.3% | viability, T/C [24]: 50.9%
